Literature values, collected in patent US8455021B2, “Composition for prophylaxis or treatment of urinary system infection and method thereof” (priority 2006, dated 2013).

Tests used:
MMP-2 = settings: Yu Cai et al., J pharm Pharmacol. 2003
MMP-9 = MMP-9 (Homo sapiens, UniProt P14780); settings: Yu Cai et al., J pharm Pharmacol. 2003
Sequence of MMP-9 (P14780 94-707, species assumed): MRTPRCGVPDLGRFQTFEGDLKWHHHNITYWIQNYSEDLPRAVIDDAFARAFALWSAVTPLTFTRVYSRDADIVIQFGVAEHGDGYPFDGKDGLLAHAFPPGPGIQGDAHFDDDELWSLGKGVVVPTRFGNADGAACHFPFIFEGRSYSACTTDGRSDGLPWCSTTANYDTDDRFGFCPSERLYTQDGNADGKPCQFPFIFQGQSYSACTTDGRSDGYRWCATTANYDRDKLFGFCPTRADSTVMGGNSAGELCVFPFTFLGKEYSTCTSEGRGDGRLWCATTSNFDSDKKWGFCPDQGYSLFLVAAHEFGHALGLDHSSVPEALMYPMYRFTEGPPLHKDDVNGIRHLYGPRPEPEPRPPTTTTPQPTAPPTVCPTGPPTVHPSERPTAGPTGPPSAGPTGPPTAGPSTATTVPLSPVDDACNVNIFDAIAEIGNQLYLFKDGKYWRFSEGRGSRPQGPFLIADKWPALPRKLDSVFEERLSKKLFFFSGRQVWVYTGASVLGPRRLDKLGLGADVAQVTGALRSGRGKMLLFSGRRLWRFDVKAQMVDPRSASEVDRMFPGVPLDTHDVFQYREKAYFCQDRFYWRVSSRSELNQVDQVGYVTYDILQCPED

## C[C@@H]1O[C@@H](O[C@H]2C(=O)c3c(O)cc(O)cc3O[C@@H]2c2ccc(O)c(O)c2)[C@H](O)[C@H](O)[C@H]1O [astilbin]
MMP-2
  activity of matrix metalloproteinase MMP-2: inhibits the activity
MMP-9
  activity of matrix metalloproteinase MMP-9: inhibits the activity
